Drawing on patent publication US8629276B2, “Inhibitors of human immunodeficiency virus replication” (priority 2012, dated 2014), this text covers EC50 for 27 compounds.

This assay has as its system recombinant NL-Rluc virus. The assay can be described thus: Inhibition of HIV replication (NL-RLuc virus, luciferase readout in MT-2 cells). The assay is classed as cell-based. The settings on record: Human immunodeficiency virus 1, MT2, 120 h.

Regarding `CC(C)c1nc2c(c(-c3ccc(F)cc3)c1C(OC(C)(C)C)C(=O)O)CN(c1ccc(-c3ccccc3)cc1)CC2(C)C` (stereo not drawn) [Example 18, 2-(6-([1,1′-Biphenyl]-4-yl)-4-(4-fluorophenyl)-2-isopropyl-8,8-dimethyl-5,6,7,8-tetrahydro-1,6-naphthyridin-3-yl)-2-(tert-butoxy)acetic acid], the EC50 was determined as 2020 nM.

For `CC(C)c1nc2c(c(-c3ccc(F)cc3)c1C(OC(C)(C)C)C(=O)O)CN(C(=O)C(=O)c1c[nH]c3ccccc13)CC2(C)C` (stereo not drawn) [Example 11, 2-(6-(2-(1H-Indol-3-yl)-2-oxoacetyl)-4-(4-fluorophenyl)-2-isopropyl-8,8-dimethyl-5,6,7,8-tetrahydro-1,6-naphthyridin-3-yl)-2-tert-butoxyacetic acid], the EC50 was 4120 nM.

Regarding `Cc1ccc(-c2c3c(nc(C)c2C(OC(C)(C)C)C(=O)O)CCN(Cc2ccccc2)C3)cc1` (stereo not drawn) [Example 21, 2-(6-Benzyl-2-methyl-4-(p-tolyl)-5,6,7,8-tetrahydro-1,6-naphthyridin-3-yl)-2-(tert-butoxy)acetic acid], the EC50 came out at 295 nM.

Regarding `Cc1ccccc1CCCN1CCc2nc(C)c([C@H](OC(C)(C)C)C(=O)O)c(-c3cc(F)c4c(c3C)CCCO4)c2C1` (atropisomer, axis not shown) [Example 48, (2S)-2-(tert-Butoxy)-2-((R)-4-(8-fluoro-5-methylchroman-6-yl)-2-methyl-6-(3-(o-tolyl)propyl)-5,6,7,8-tetrahydro-1,6-naphthyridin-3-yl)acetic acid], the EC50 was 2 nM.

As to `Cc1cc(CCCN2CCc3nc(C)c([C@H](OC(C)(C)C)C(=O)O)c(-c4cc(F)c5c(c4C)CCCO5)c3C2)ccc1F` (atropisomer, axis not shown) [Example 52, (2S)-2-(tert-Butoxy)-2-(6-(3-(4-fluoro-3-methylphenyl)propyl)-(R)-4-(8-fluoro-5-methylchroman-6-yl)-2-methyl-5,6,7,8-tetrahydro-1,6-naphthyridin-3-yl)acetic acid], the EC50 worked out at 2 nM.

Regarding `Cc1nc2c(c(-c3cc(F)c4c(c3C)CCCO4)c1[C@H](OC(C)(C)C)C(=O)O)CN(CCCc1ccccc1F)CC2` (atropisomer, axis not shown) [Example 55, (2S)-2-(tert-Butoxy)-2-((R)-4-(8-fluoro-5-methylchroman-6-yl)-6-(3-(2-fluorophenyl)propyl)-2-methyl-5,6,7,8-tetrahydro-1,6-naphthyridin-3-yl)acetic acid], the EC50 stood at 1 nM.

With `Cc1ccc(-c2c3c(nc(C)c2C(OC(C)(C)C)C(=O)O)CCN(C(=O)OCc2ccccc2)C3)cc1` (stereo not drawn) [Example 19, 2-(6-((Benzyloxy)carbonyl)-2-methyl-4-(p-tolyl)-5,6,7,8-tetrahydro-1,6-naphthyridin-3-yl)-2-(tert-butoxy)acetic acid], the EC50 was 226 nM.

In the case of `Cc1ccc(-c2c3c(nc(C)c2C(OC(C)(C)C)C(=O)O)CCN(CCCc2ccccc2)C3)cc1` (stereo not drawn) [Example 29, 2-(tert-Butoxy)-2-(2-methyl-6-(3-phenylpropyl)-4-(p-tolyl)-5,6,7,8-tetrahydro-1,6-naphthyridin-3-yl)acetic acid], the EC50 was 10 nM.

Consider `COc1ccc(CCCN2CCc3nc(C)c([C@H](OC(C)(C)C)C(=O)O)c(-c4ccc(C)cc4)c3C2)cc1` [Example 33, (S)-2-(tert-Butoxy)-2-(6-(3-(4-methoxyphenyl)propyl)-2-methyl-4-(p-tolyl)-5,6,7,8-tetrahydro-1,6-naphthyridin-3-yl)acetic acid], for which the half-maximal effective concentration (EC50) worked out at 17 nM.

As for `Cc1ccc(-c2c3c(nc(C)c2C(OC(C)(C)C)C(=O)O)CCN(C(=O)[C@H](Cc2ccccc2)NS(=O)(=O)c2ccc(C)cc2)C3)cc1` (stereo in doubt) [Example 32, 2-(tert-Butoxy)-2-(2-methyl-6-(2-(4-methylphenylsulfonamido)-3-phenylpropanoyl)-4-(p-tolyl)-5,6,7,8-tetrahydro-1,6-naphthyridin-3-yl)acetic acid], the EC50 worked out at 2300 nM.

For the compound `COC(=O)N1CCc2nc(C)c(C(OC(C)(C)C)C(=O)O)c(-c3ccc(C)cc3)c2C1` (stereo not drawn) [Example 26, 2-(tert-Butoxy)-2-(6-(methoxycarbonyl)-2-methyl-4-(p-tolyl)-5,6,7,8-tetrahydro-1,6-naphthyridin-3-yl)acetic acid], the EC50 was determined as 1640 nM.

For `Cc1nc2c(c(-c3cc(F)c4c(c3C)CCCO4)c1[C@H](OC(C)(C)C)C(=O)O)CN(CCCc1ccccc1)CC2` (atropisomer, axis not shown) [Example 42, (2S)-2-(tert-Butoxy)-2-((R)-4-(8-fluoro-5-methylchroman-6-yl)-2-methyl-6-(3-phenylpropyl)-5,6,7,8-tetrahydro-1,6-naphthyridin-3-yl)acetic acid], the EC50 came out at 7 nM.

Turning to `CC(C)c1nc2c(c(-c3ccc(F)cc3)c1C(OC(C)(C)C)C(=O)O)CN(C(=O)Cc1ccc(OCc3ccccc3)cc1)CC2(C)C` (stereo not drawn) [Example 5, 2-(6-(2-(4-(Benzyloxy)phenyl)acetyl)-4-(4-fluorophenyl)-2-isopropyl-8,8-dimethyl-5,6,7,8-tetrahydro-1,6-naphthyridin-3-yl)-2-tert-butoxyacetic acid], the EC50 came to 5130 nM.

`Cc1ccc(-c2c3c(nc(C)c2C(OC(C)(C)C)C(=O)O)CCN(c2ccc(-c4ccccc4)cc2)C3)cc1` (stereo not drawn) [Example 30, 2-(6-([1,1′-Biphenyl]-4-yl)-2-methyl-4-(p-tolyl)-5,6,7,8-tetrahydro-1,6-naphthyridin-3-yl)-2-(tert-butoxy)acetic acid]: the EC50 came out at 323 nM.

`CC(C)c1nc2c(c(-c3ccc(F)cc3)c1C(OC(C)(C)C)C(=O)O)CN(C(=O)c1ccc(-c3ccccc3)cc1)CC2(C)C` (stereo not drawn) [Example 13, 2-(6-(Biphenylcarbonyl)-4-(4-fluorophenyl)-2-isopropyl-8,8-dimethyl-5,6,7,8-tetrahydro-1,6-naphthyridin-3-yl)-2-tert-butoxyacetic acid]: the EC50 came to 2010 nM.

With `Cc1ccc(-c2c3c(nc(C)c2[C@H](OC(C)(C)C)C(=O)O)CCN(Cc2ccc(Cl)cc2)C3)cc1` [Example 41, (S)-2-(tert-Butoxy)-2-(6-(4-chlorobenzyl)-2-methyl-4-(p-tolyl)-5,6,7,8-tetrahydro-1,6-naphthyridin-3-yl)acetic acid], the EC50 came to 150 nM.

On to `Cc1onc(-c2ccccc2)c1C(=O)N1Cc2c(nc(C(C)C)c(C(OC(C)(C)C)C(=O)O)c2-c2ccc(F)cc2)C(C)(C)C1` (stereo not drawn) [Example 14, 2-tert-Butoxy-2-(4-(4-fluorophenyl)-2-isopropyl-8,8-dimethyl-6-(5-methyl-3-phenylisoxazole-4-carbonyl)-5,6,7,8-tetrahydro-1,6-naphthyridin-3-yl)acetic acid], for which the EC50 is 10200 nM.

Take `CC(C)c1nc2c(c(-c3ccc(F)cc3)c1C(OC(C)(C)C)C(=O)O)CN(Cc1ccc(F)cc1)CC2(C)C` (stereo not drawn) [Example 16, 2-tert-Butoxy-2-(6-(4-fluorobenzyl)-4-(4-fluorophenyl)-2-isopropyl-8,8-dimethyl-5,6,7,8-tetrahydro-1,6-naphthyridin-3-yl)acetic acid]: the EC50 came out at 6920 nM.

`Cc1ccc(-c2c3c(nc(C)c2C(OC(C)(C)C)C(=O)O)CCNC3)cc1` (stereo not drawn) [Example 20, 2-(tert-Butoxy)-2-(2-methyl-4-(p-tolyl)-5,6,7,8-tetrahydro-1,6-naphthyridin-3-yl)acetic acid]: the EC50 came out at 13500 nM.

On to `Cc1ccc(-c2c3c(nc(C)c2C(OC(C)(C)C)C(=O)O)CCN(CCc2ccccc2)C3)cc1` (stereo not drawn) [Example 24, 2-(tert-Butoxy)-2-(2-methyl-6-phenethyl-4-(p-tolyl)-5,6,7,8-tetrahydro-1,6-naphthyridin-3-yl)acetic acid], for which the EC50 came out at 240 nM.

For `Cc1nc2c(c(-c3cc(F)c4c(c3C)CCCO4)c1[C@H](OC(C)(C)C)C(=O)O)CN(CCCc1ccc(F)cc1)CC2` (atropisomer, axis not shown) [Example 45, (S)-2-(tert-Butoxy)-2-((R)-4-(8-fluoro-5-methylchroman-6-yl)-6-(3-(4-fluorophenyl)propyl)-2-methyl-5,6,7,8-tetrahydro-1,6-naphthyridin-3-yl)acetic acid], the EC50 amounted to 4 nM.

Consider `Cc1cccc(CCCN2CCc3nc(C)c([C@H](OC(C)(C)C)C(=O)O)c(-c4cc(F)c5c(c4C)CCCO5)c3C2)c1` (atropisomer, axis not shown) [Example 47, (2S)-2-(tert-Butoxy)-2-((R)-4-(8-fluoro-5-methylchroman-6-yl)-2-methyl-6-(3-(m-tolyl)propyl)-5,6,7,8-tetrahydro-1,6-naphthyridin-3-yl)acetic acid], for which the EC50 was found to be 2 nM.

In the case of `Cc1ccc(S(=O)(=O)N[C@@H](Cc2ccccc2)C(=O)N2Cc3c(nc(C(C)C)c(C(OC(C)(C)C)C(=O)O)c3-c3ccc(F)cc3)C(C)(C)C2)cc1` (stereo in doubt) [Example 10, 2-tert-Butoxy-2-(4-(4-fluorophenyl)-2-isopropyl-8,8-dimethyl-6-(2-(4-methylphenylsulfonamido)-3-phenylpropanoyl)-5,6,7,8-tetrahydro-1,6-naphthyridin-3-yl)acetic acid], the EC50 stood at 777 nM.

As to `Cc1ccc(-c2c3c(nc(C)c2[C@H](OC(C)(C)C)C(=O)O)CCN(CCCc2ccc(Cl)cc2)C3)cc1` [Example 34, (S)-2-(tert-Butoxy)-2-(6-(3-(4-chlorophenyl)propyl)-2-methyl-4-(p-tolyl)-5,6,7,8-tetrahydro-1,6-naphthyridin-3-yl)acetic acid], the EC50 stood at 12 nM.

Regarding `Cc1ccc(-c2c3c(nc(C)c2[C@H](OC(C)(C)C)C(=O)O)CCN(C(=O)CCCc2ccccc2)C3)cc1` [Example 36, (S)-2-(tert-Butoxy)-2-(2-methyl-6-(4-phenylbutanoyl)-4-(p-tolyl)-5,6,7,8-tetrahydro-1,6-naphthyridin-3-yl)acetic acid], the EC50 was 52 nM.

As for `CC(=O)N1CCc2nc(C)c(C(OC(C)(C)C)C(=O)O)c(-c3ccc(C)cc3)c2C1` (stereo not drawn) [Example 25, 2-(6-Acetyl-2-methyl-4-(p-tolyl)-5,6,7,8-tetrahydro-1,6-naphthyridin-3-yl)-2-(tert-butoxy)acetic acid], the EC50 was determined as 1920 nM.

As for `CC(C)c1nc2c(c(-c3ccc(F)cc3)c1C(OC(C)(C)C)C(=O)O)CN(C(=O)c1ccccc1)CC2(C)C` (stereo not drawn) [Example 3, 2-(6-Benzoyl-4-(4-fluorophenyl)-2-isopropyl-8,8-dimethyl-5,6,7,8-tetrahydro-1,6-naphthyridin-3-yl)-2-tert-butoxyacetic acid], the EC50 came out at 6790 nM.

What is called EC50 is the midpoint of the concentration-response curve.
